We go through one compound from patent publication EP0068617A1, “Derivatives of clavulanic acid, a process for their preparation and their use” (BEECHAM GROUP PLC, priority 1981, dated 1983).

Test systems include Staph. aureus Russell; Kleb. aerogenes E70; Escherichia coli JT39.
Holding throughout (assay): MIC of amoxycillin in combination with the compound (synergy)
What all share (assay type): cell-based
What all share (details): amoxycillin alone

On to `CC1(C)S[C@@H]2[C@H](NC(=O)[C@H](N)c3ccc(O)cc3)C(=O)N2[C@H]1C(=O)O` [Amoxycillin], for which the “MIC µg/ml amoxycillin” value in the assay with Staph. aureus Russell came out at 500 µg/mL; in the assay with Kleb. aerogenes E70 it was 1000 µg/mL; in the assay with Escherichia coli JT39, 2000 µg/mL.
